# According to patent publication US20130324532A1 (priority 2011, published 2013):
# Read-outs that look alike come from different tables or passages of the source.
# What was measured:
# [1] = target: N-terminally GST-fused purified FAK enzyme (Homo sapiens, UniProt Q05397); experiment: biochemical
# Experimental: Binding parameters of compounds were determined using a Biacore™ S51 sensor. An anti-GST antibody was immobilized onto a CM5 chip by primary amine-coupling in accordance with the manufacturer's recommendations.
# Concentration series' of the test compounds were injected over the spots at 25° C.
# After the injection cycle of a compound the chip surface was regenerated with 10 mM glycine-HCl, pH2.2 before capturing the enzyme again.
# [2] = target: FAK enzyme (catalytic domain, amino acids 411-686) (Homo sapiens, UniProt Q05397); experiment: biochemical
# MDA-231-LNA cells = experiment: cells; settings: 72 h
# [3] = target: T1, VEGFR3 cytoplasmic domain (Homo sapiens, UniProt P35916, DEL949-1002); experiment: biochemical
# T1 construct: VEGFR3 cytoplasmic domain (amino acids 798-1298) was purchased as N-terminal GST-fusion protein; purchased
# [4] = target: VEGFR3 cytoplasmic domain (Homo sapiens, UniProt P35916); experiment: biochemical
# [5] = target: T2, Phospho VEGFR3 (Flt4) in HMVEC-dLyAD cells (Homo sapiens, UniProt P35916); experiment: Flt4 Phospho ELISA assay; assay type: cell-based
# T2 construct: host or cells: HMVEC-dLyAD (adult human dermal lymphatic microvascular endothelial cells)
# Experimental: The ability of compounds of the invention to inhibit VEGFR3 within cells can be assessed with an ELISA type assay.
# The plates were covered and incubated at room temperature overnight.
# 300 μL of Blocking buffer (5% v/v Tween 20, 5% w/v sucrose in PBS) was then added to wells and plate incubated for 2 hours at room temperature. Blocking solution is flicked out and plates washed three times and tapped dry.
# Compound dilution series were prepared in Endogro basal (Cat # SCME-BM, Millipore)+0.1% BSA (Cat#A8412, Sigma) with constant 0.1% DMSO concentration. 439 μL of sample or vehicle control was added to the cell monolayers.
# 130 μL of Lysis buffer added to wells and cell lysate harvested and transferred to tubes and stored on ice.
# The plates were then washed three times in wash buffer as described above and tapped dry. […]
# Total VEGFR3 levels were quantified using a Multiskan Ascent plate reader and Ascent software fitted with 450 nm filter. […]
# Phospho VEGFR3 levels were quantified using a Multiscan ascent plate reader and ascent software fitted with 450 nm filter.
# where SRP is the Sample Relative Phospho level, SP is Phospho VEGFR3 reading and ST is Total VEGFR3 reading.
# Percent inhibition (% I) for each lysate relative to vehicle control (VEGF-C stimulated) is then calculated according to the following formula:
# where SRP is the Sample Relative Phospho level as calculated above. […]
# [6] = tested on: HeyA8, SKOV3ip1, and HeyA8-MDR models; settings: cited from earlier work
# [7] = tested on: taxane-sensitive (SKOV3ip1 and HeyA8) and taxane-resistant (HeyA8-MDR) ovarian cancer cell lines; settings: in vitro; cited from earlier work
# Chain of VEGFR3 cytoplasmic domain (Homo sapiens, UniProt P35916) (P35916 other isoform, or with tags, fused parts or gaps): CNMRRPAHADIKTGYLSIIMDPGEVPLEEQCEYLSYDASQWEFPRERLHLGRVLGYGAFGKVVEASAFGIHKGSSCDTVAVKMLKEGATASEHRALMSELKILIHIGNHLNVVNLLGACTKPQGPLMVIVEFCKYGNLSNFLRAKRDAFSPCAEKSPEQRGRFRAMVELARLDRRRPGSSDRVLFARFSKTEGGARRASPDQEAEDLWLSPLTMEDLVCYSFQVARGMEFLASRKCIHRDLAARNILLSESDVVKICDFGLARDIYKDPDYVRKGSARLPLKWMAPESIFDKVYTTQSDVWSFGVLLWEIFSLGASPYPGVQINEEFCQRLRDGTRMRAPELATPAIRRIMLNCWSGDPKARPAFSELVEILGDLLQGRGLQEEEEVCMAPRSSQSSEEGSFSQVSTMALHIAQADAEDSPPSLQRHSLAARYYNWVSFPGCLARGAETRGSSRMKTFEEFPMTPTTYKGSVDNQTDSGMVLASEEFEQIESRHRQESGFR
# Chain of FAK enzyme (catalytic domain, amino acids 411-686) (Q05397 411-686, species assumed): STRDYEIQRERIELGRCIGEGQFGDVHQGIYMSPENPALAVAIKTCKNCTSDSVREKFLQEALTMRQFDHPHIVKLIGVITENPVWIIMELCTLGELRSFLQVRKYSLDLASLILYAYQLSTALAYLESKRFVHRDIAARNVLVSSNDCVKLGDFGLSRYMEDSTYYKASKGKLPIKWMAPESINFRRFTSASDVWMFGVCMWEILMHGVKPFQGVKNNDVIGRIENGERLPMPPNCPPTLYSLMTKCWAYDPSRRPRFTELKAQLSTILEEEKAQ
# Chain of N-terminally GST-fused purified FAK enzyme (Q05397 whole entry, the tested form may be a part): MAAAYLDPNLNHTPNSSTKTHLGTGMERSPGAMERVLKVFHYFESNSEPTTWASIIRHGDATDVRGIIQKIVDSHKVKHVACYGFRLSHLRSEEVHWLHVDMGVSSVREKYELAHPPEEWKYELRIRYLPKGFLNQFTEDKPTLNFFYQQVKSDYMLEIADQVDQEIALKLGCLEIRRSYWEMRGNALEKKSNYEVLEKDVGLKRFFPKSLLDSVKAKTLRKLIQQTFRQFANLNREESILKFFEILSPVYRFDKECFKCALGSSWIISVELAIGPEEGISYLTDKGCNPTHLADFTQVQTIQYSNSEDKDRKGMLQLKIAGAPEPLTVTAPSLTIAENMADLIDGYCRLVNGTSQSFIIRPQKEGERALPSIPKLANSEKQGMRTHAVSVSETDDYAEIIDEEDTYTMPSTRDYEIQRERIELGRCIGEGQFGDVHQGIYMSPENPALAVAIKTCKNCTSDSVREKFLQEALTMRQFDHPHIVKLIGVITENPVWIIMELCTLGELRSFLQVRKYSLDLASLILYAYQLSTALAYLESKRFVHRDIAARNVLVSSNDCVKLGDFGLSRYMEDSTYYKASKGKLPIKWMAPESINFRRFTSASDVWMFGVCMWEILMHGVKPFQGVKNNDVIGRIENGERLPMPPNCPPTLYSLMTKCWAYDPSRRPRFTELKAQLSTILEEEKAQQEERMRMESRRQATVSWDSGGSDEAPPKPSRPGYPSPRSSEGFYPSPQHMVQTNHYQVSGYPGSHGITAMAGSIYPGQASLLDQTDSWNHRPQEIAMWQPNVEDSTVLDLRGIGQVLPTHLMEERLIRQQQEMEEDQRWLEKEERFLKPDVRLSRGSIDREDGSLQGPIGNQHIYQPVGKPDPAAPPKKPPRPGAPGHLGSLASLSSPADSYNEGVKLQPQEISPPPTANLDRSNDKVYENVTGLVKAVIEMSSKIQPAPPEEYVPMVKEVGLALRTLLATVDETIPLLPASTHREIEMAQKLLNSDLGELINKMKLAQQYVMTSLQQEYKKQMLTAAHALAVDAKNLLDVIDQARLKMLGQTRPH
# T2 sequence (P35916 25-1363): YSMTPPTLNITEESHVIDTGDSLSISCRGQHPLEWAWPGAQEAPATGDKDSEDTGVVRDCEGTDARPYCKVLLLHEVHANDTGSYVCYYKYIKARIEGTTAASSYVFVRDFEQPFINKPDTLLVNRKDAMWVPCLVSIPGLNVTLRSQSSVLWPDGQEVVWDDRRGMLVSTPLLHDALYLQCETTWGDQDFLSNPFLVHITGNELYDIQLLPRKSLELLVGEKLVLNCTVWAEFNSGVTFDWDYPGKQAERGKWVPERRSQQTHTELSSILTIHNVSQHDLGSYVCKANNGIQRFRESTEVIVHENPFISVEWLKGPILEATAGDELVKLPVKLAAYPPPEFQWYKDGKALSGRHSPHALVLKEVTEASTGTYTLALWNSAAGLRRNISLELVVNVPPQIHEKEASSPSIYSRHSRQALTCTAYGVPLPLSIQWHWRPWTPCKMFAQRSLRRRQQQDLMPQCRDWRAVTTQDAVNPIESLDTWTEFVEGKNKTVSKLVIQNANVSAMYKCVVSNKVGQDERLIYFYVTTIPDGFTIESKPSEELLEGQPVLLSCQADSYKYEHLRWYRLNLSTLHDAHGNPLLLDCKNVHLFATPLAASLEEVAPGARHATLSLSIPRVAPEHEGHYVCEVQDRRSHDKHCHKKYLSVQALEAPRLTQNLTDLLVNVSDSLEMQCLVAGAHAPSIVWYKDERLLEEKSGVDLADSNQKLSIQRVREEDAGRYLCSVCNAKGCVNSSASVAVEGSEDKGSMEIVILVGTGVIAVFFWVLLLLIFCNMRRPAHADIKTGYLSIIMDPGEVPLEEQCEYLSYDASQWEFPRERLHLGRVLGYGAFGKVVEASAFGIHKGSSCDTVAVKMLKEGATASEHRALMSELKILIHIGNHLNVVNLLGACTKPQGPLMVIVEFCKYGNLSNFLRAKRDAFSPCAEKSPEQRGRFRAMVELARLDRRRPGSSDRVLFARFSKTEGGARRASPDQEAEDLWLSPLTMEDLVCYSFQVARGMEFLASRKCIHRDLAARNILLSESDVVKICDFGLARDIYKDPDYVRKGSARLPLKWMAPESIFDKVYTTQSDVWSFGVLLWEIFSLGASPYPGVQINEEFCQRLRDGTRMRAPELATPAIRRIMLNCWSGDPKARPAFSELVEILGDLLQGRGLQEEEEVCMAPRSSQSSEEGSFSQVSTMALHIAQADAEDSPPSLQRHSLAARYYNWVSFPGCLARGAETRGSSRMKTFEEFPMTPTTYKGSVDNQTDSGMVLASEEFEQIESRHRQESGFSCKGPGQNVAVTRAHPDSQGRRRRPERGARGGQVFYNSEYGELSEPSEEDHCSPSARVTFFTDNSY
# T1 sequence (P35916 with tags, fused parts or gaps DEL949-1002): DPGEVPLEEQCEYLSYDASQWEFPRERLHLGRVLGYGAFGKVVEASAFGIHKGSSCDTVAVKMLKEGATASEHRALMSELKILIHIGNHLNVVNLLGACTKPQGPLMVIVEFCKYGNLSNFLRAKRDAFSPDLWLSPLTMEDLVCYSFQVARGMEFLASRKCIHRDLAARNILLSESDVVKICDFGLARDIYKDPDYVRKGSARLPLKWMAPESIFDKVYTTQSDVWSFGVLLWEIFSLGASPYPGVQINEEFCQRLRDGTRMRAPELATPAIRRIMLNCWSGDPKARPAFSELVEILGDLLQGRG
SMILES,Kd [1] [nM],IC50 [2] [nM],IC50 (MDA-231-LNA cells) [nM],other results
"NC(=O)Cc1ccccc1CCc1nc(Nc2ccc(N3CCNCC3)cc2)ncc1C(F)(F)F [Compound 1, 2-(2-(2-(2-((4-(piperazin-1-yl)phenyl)amino)-5-(trifluoromethyl)pyrimidin-4-yl)ethyl)phenyl)acetamide]",0.49,2.1,–,–
"CN1CCN(c2ccc(Nc3ncc(C(F)(F)F)c(CCc4cccc(C(N)=O)c4)n3)cc2)CC1 [Compound 2, 3-(2-(2-((4-(4-Methylpiperazin-1-yl)phenyl)amino)-5-(trifluoromethyl)pyrimidin-4-yl)ethyl)benzamide]",1.5,2.5,3210,"IC50 ([3]; modified form (*): N-terminal Hexa-His-fusion protein, amino acids 818-1177 lacking 949-1002, read-out: IC50): 120 nM"
CN1CCN(c2ccc(Nc3ncc(C(F)(F)F)c(CCc4ccccc4CC(N)=O)n3)cc2)CC1 [Compound 3],0.91,1.9,–,–
"NC(=O)Cc1ccccc1CCc1nc(Nc2ccc(C3CCCNC3)cc2)ncc1C(F)(F)F (centres unmarked) [Compound 4, 2-(2-(2-(2-((4-(Piperidin-3-yl)phenyl)amino)-5-(trifluoromethyl)pyrimidin-4-yl)ethyl)phenyl)acetamide]",0.73,1.5,–,–
"CN1CCN(c2cccc(Nc3ncc(C(F)(F)F)c(CCc4cccc(C(N)=O)c4)n3)c2)CC1 [Compound 6, 3-(2-(2-((3-(4-Methylpiperazin-1-yl)phenyl)amino)-5-(trifluoromethyl)pyrimidin-4-yl)ethyl)benzamide]",6.3,4.2,3910,IC50 [4]: 52 nM
"NC(=O)Cc1ccccc1CCc1nc(Nc2ccc(C3CCCCN3)cc2)ncc1C(F)(F)F (centres unmarked) [Compound 8, 2-(2-(2-(2-((4-(Piperidin-2-yl)phenyl)amino)-5-(trifluoromethyl)pyrimidin-4-yl)ethyl)phenyl)acetamide]",1,6.1,–,–
CN1CCCCC1c1ccc(Nc2ncc(C(F)(F)F)c(CCc3ccccc3CC(N)=O)n2)cc1 (centres unmarked) [Compound 9],7,7,–,–
"NC(=O)Cc1ccccc1CCc1nc(Nc2ccc(C3CCNCC3)cc2)ncc1C(F)(F)F [Compound 11, 2-(2-(2-(2-((4-(Piperidin-4-yl)phenyl)amino)-5-(trifluoromethyl)pyrimidin-4-yl)ethyl)phenyl)acetamide]",0.61,3,–,–
"CC(C(N)=O)c1ccccc1CCc1nc(Nc2ccc(C3CCNCC3)cc2)ncc1C(F)(F)F (centres unmarked) [Compound 12, 2-(2-(2-(2-((4-(Piperidin-4-yl)phenyl)amino)-5-(trifluoromethyl)pyrimidin-4-yl)ethyl)phenyl)propanamide]",0.92,6.3,–,–
"CNC(=O)Cc1ccccc1CCc1nc(Nc2ccc(N3CCNCC3)cc2)ncc1C(F)(F)F [Compound 14, N-Methyl-2-(2-(2-(2-((4-(piperazin-1-yl)phenyl)amino)-5-(trifluoromethyl)pyrimidin-4-yl)ethyl)phenyl)acetamide]",6.1,21,4490,IC50 [4]: 101 nM
"O=C1NCc2cccc(CCc3nc(Nc4ccc(N5CCNCC5)cc4)ncc3C(F)(F)F)c21 [Compound 15, 7-(2-(2-((4-(piperazin-1-yl)phenyl)amino)-5-(trifluoromethyl)pyrimidin-4-yl)ethyl)isoindolin-1-one]",5,18,2370,IC50 ([4]; read-out: IC50): 37 nM
"CN1CCN(c2cccc(Nc3ncc(C(F)(F)F)c(CCc4ccccc4CC(N)=O)n3)c2)CC1 [Compound 17, 2-(2-(2-(2-((3-(4-Methylpiperazin-1-yl)phenyl)amino)-5-(trifluoromethyl)pyrimidin-4-yl)ethyl)phenyl)acetamide]",3.5,3.4,3510,IC50 [4]: 31 nM; IC50 [5]: 44 nM
CNC(=O)Cc1ccccc1CCc1nc(Nc2cccc(N3CCN(C)CC3)c2)ncc1C(F)(F)F [Compound 18],13,13,> 5000,IC50 [4]: 664 nM
"Cc1ccc(CCc2nc(Nc3ccc(N4CCNCC4)cc3)ncc2C(F)(F)F)cc1C(N)=O [Compound 19, 2-Methyl-5-(2-(2-((4-(piperazin-1-yl)phenyl)amino)-5-(trifluoromethyl)pyrimidin-4-yl)ethyl)benzamide]",7.8,7.7,1490,IC50 [4]: 37 nM
"NC(=O)Cc1ccccc1CCc1nc(Nc2ccc(N3CCC(N)CC3)cc2)ncc1C(F)(F)F [Compound 20, 2-(2-(2-(2-((4-(4-Aminopiperidin-1-yl)phenyl)amino)-5-(trifluoromethyl)pyrimidin-4-yl)ethyl)phenyl)acetamide]",0.63,0.81,–,–
"NC(=O)Cc1ccccc1CCc1nc(Nc2ccc3c(c2)CCNC3)ncc1C(F)(F)F [Compound 21, 2-(2-(2-(2-((1,2,3,4-Tetrahydroisoquinolin-6-yl)amino)-5-(trifluoromethyl)pyrimidin-4-yl)ethyl)phenyl)acetamide]",0.44,2.4,–,–
"NC(=O)Cc1ccccc1CCc1nc(Nc2ccc(C3CNCCO3)cc2)ncc1C(F)(F)F (centres unmarked) [Compound 22, 2-(2-(2-(2-((4-(morpholin-2-yl)phenyl)amino)-5-(trifluoromethyl)pyrimidin-4-yl)ethyl)phenyl)acetamide]",0.99,2.8,–,–
"NC(=O)Cc1ccccc1CCc1nc(Nc2ccc(CN3CCNCC3)cc2)ncc1C(F)(F)F [Compound 25, 2-(2-(2-(2-((4-(piperazin-1-ylmethyl)phenyl)amino)-5-(trifluoromethyl)pyrimidin-4-yl)ethyl)phenyl)acetamide]",–,–,2890,–
"NC(=O)Cc1nccnc1CCc1nc(Nc2ccc(C3CCNCC3)cc2)ncc1C(F)(F)F [Compound 26, 2-(3-(2-(2-((4-(Piperidin-4-yl)phenyl)amino)-5-(trifluoromethyl)pyrimidin-4-yl)ethyl)pyrazin-2-yl)acetamide]",14,20,–,–
"NC(=O)Cc1cncnc1CCc1nc(Nc2ccc(C3CCNCC3)cc2)ncc1C(F)(F)F [Compound 29, 2-(4-(2-(2-((4-(Piperidin-4-yl)phenyl)amino)-5-(trifluoromethyl)pyrimidin-4-yl)ethyl)pyrimidin-5-yl)acetamide]",12.1,11,–,–
"CCN1CCC(c2ccc(Nc3ncc(C(F)(F)F)c(CCc4ccccc4CC(N)=O)n3)cc2)CC1 [Compound 31, 2-(2-(2-(2-((4-(1-Ethylpiperidin-4-yl)phenyl)amino)-5-(trifluoromethyl)pyrimidin-4-yl)ethyl)phenyl)acetamide]",1,–,–,–
"CN1CCC(c2ccc(Nc3ncc(C(F)(F)F)c(CCc4cc(C(N)=O)ccn4)n3)cc2)CC1 [Compound 34, 2-(2-(2-((4-(1-Methylpiperidin-4-yl)phenyl)amino)-5-(trifluoromethyl)pyrimidin-4-yl)ethyl)isonicotinamide]",5,5.7,7850,IC50 [3]: 184 nM
"CN1CCN(Cc2ccc(Nc3ncc(C(F)(F)F)c(CCc4ccccc4CC(N)=O)n3)cc2)CC1 [Compound 36, 2-(2-(2-(2-((4-((4-Methylpiperazin-1-yl)methyl)phenyl)amino)-5-(trifluoromethyl)pyrimidin-4-yl)ethyl)phenyl)acetamide]",0.48,2.3,5620,IC50 [4]: 16 nM; IC50 [5]: 169 nM
"NC(=O)c1cccc(CCc2nc(Nc3ccc(CN4CCNCC4)cc3)ncc2C(F)(F)F)c1 [Compound 37, 3-(2-(2-((4-(piperazin-1-ylmethyl)phenyl)amino)-5-(trifluoromethyl)pyrimidin-4-yl)ethyl)benzamide]",–,15,2790,IC50 [4]: 254 nM
CNC(=O)c1ccccc1Nc1nc(Nc2ccc(N3CCOCC3)cc2OC)ncc1Cl [TAE226],–,–,–,"reduced tumour burden compared with vehicle-treated controls ([6]; TAE226 alone, HeyA8, SKOV3ip1, HeyA8-MDR models): 46-64%; tumour burden reduction ([6]; concomitant administration of TAE226 and docetaxel, all three models): 85-97%; survival in tumour-bearing mice ([6]; in combination with docetaxel): significantly prolonged survival; phosphorylation of FAK at both Y397 and Y861 sites [7]: inhibited"
